Data set [1] deals with HCT-116. Kind of data set: Cell cycle arrest in human HCT116 cells assessed as accumulation at pre-G1 phase at 50 uM after 30 hrs by propidium iodide staining-based FACS analysis. The format is functional. (In general: Flow cytometry measures light scatter and fluorescence of single cells or particles in a stream.)
In the next data set the target is Egl nine homolog 1 (Homo sapiens, UniProt Q9GZT9). Nature of the data set: Inhibition of PHD2 (unknown origin) by mass spectrometry.
Egl nine homolog 1, sequence (Q9GZT9 whole entry): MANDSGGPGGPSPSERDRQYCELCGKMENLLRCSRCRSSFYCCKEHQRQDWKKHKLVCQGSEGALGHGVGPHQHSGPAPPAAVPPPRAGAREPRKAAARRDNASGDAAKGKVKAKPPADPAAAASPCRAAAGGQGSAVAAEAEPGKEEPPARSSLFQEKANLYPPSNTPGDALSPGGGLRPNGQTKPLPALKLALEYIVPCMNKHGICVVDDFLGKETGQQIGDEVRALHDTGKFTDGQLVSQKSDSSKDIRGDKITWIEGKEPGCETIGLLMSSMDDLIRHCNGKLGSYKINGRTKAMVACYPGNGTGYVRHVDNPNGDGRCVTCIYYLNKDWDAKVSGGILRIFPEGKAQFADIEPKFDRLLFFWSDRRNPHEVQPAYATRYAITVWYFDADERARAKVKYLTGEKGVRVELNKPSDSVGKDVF
Data set [2] deals with HCT-116. Kind of data set: Cytotoxicity against human HCT116 cells at 50 uM after 6 hrs. The data set is classed as functional, cell-based.
Data set [3] relates to LNCaP. Kind of data set: Cell cycle arrest in human LNCAP cells assessed as accumulation at pre-G1 phase at 50 uM after 30 hrs by propidium iodide staining-based FACS analysis. The data set is classed as functional.
Data set [4] concerns LNCaP. Kind of data set: Antimigratory activity against human LNCAP cells at 50 uM after 72 hrs. The data set is classed as functional, cell-based.
Data set [5] relates to HCT-116. Nature of the data set: Antimigratory activity against human HCT116 cells at 50 uM after 72 hrs. The data set is classed as functional, cell-based.
In data set [6] the test system is LNCaP. Nature of the data set: Inhibition of LSD1/JmjC in human LNCAP cells assessed as increase in H3K4me2/3 level at 50 uM by Western blotting analysis. The format is cell-based. (In general: In western blotting, separated proteins are transferred to a membrane and probed.)
The subject of data set [7] is LNCaP. Kind of data set: Induction of apoptosis in human LNCAP cells at 10 to 100 uM after 48 hrs by propidium iodide staining-based FACS analysis. The data set is classed as functional, cell-based.
For data set [8], the target named is Hypoxia-inducible factor 1-alpha inhibitor (Homo sapiens, UniProt Q9NWT6). Nature of the data set: Inhibition of FIH (unknown origin) by mass spectrometry.
Hypoxia-inducible factor 1-alpha inhibitor, sequence (Q9NWT6 whole entry): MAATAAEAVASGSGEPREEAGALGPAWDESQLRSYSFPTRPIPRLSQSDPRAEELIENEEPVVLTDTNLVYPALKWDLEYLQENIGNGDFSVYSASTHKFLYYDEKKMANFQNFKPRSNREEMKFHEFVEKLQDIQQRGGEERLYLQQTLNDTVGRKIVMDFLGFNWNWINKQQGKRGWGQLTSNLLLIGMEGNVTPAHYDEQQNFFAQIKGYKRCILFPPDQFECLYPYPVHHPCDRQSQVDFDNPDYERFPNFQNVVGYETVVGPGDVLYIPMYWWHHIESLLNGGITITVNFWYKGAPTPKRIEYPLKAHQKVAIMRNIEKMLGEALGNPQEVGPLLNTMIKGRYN
Data set [9] concerns HCT-116. Nature of the data set: Inhibition of LSD1/JmjC in human HCT116 cells assessed as increase in H3K4me2/3 level at 50 uM by Western blotting analysis. The format is cell-based.
Data set [10] relates to LNCaP. Kind of data set: Cytotoxicity against human LNCAP cells at 50 uM after 72 hrs. The data set is classed as functional, cell-based.
The subject of data set [11] is HCT-116. Nature of the data set: Inhibition of LSD1/JmjC in human HCT116 cells assessed as increase in H3K9me3 level at 50 uM by Western blotting analysis. The format is cell-based.
Data set [12] has as its target T1, Amine oxidase [flavin-containing] A (Homo sapiens, UniProt P21397).
T1 sequence (P21397 whole entry): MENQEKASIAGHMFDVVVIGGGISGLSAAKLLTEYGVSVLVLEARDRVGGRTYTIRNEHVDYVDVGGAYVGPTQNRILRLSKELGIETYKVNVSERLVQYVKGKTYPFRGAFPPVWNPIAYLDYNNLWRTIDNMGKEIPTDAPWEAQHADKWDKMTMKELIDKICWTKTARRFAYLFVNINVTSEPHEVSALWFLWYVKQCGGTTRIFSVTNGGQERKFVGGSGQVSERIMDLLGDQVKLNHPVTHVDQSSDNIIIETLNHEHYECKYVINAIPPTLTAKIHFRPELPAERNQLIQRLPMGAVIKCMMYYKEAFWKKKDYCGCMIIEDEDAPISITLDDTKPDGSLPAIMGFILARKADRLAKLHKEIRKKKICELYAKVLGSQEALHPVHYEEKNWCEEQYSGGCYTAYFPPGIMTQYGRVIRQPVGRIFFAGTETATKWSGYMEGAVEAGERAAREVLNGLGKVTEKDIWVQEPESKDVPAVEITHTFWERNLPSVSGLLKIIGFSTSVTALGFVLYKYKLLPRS
Description: Inhibition of human recombinant MAO-A expressed in Pichia pastoris using kynuramine as substrate after 5 mins

Data set [13] has as its system LNCaP. Nature of the data set: Cell cycle arrest in human LNCAP cells assessed as accumulation at G1 phase at 50 uM after 30 hrs by propidium iodide staining-based FACS analysis. The data set is classed as functional.
A short description of data set [14]: Induction of apoptosis in human MePR cells assessed as accumulation at pre-G1 phase at 50 uM after 24 hrs by propidium iodide staining-based FACS analysis (reference value: 8.4%). The data set is classed as cell-based.
The subject of data set [15] is HCT-116. Kind of data set: Induction of apoptosis in human HCT116 cells at 10 to 100 uM after 48 hrs by propidium iodide staining-based FACS analysis. The data set is classed as functional, cell-based.
The test system of data set [16] is LNCaP. Nature of the data set: Inhibition of LSD1/JmjC in human LNCAP cells assessed as increase in H3K9me3 level at 50 uM by Western blotting analysis. The data set is classed as cell-based.

The source made the active and inactive calls. No cut-off for these calls is given here.

As to `Cl.N[C@@H]1C[C@H]1c1ccc(NC(=O)c2ccc(O)c3ncccc23)cc1` (relative stereo), the outcome in the data set with HCT-116 [1], with HCT-116 [2], with LNCaP [3], with LNCaP [7], in the data set on LNCaP [10] and in the data set on HCT-116 [15] was Active. Besides, the IC50 was 8.5 µM against Egl nine homolog 1, 25 µM in data set [8] and 8.9 µM in data set [12]. The result in the data set with LNCaP [4] and in the data set with HCT-116 [5] was inactive. Further, the inhibition result with LNCaP [6], in the data set on HCT-116 [9], in the data set with HCT-116 [11] and with LNCaP [16] was “Active” in each case. Further, the figures for the Activity entry (in the data set with LNCaP [13]; in data set [14]) were “>=90%” and 4.2%, respectively.

`Cl.N[C@H]1C[C@@H]1c1ccc(NC(=O)CCCCCNC(=O)c2ccc(O)c3ncccc23)cc1` (relative stereo): the outcome in the data set with LNCaP [3] was Active. Besides, the Activity result with LNCaP [13] was “>=90%”.

For `N[C@@H]1C[C@H]1c1ccc(NC(=O)c2ccnc(-c3cc(C(=O)O)ccn3)c2)cc1` (relative stereo), the IC50 at Egl nine homolog 1 was 278 µM; in [8] it was > 100 µM; in data set [12], 35.4 µM.

With `COC(=O)c1ccnc(-c2cc(C(=O)Nc3ccc([C@@H]4C[C@H]4N)cc3)ccn2)c1.Cl` (relative stereo), the outcome in the data set on HCT-116 [1], in the data set with HCT-116 [2], in the data set on LNCaP [3], in the data set on HCT-116 [5], with LNCaP [7] and in the data set on LNCaP [10] was Active. Besides, the result in the data set with HCT-116 [15] was Active. The result with LNCaP [4] was inactive. The inhibition entry in the data set on LNCaP [6], in the data set on HCT-116 [9], with HCT-116 [11] and in the data set on LNCaP [16] was “Active” throughout. In addition, in data set [12], the IC50 is < 1 µM. Further, the Activity entry is given as “>=90%” in the data set on LNCaP [13] and 12.8% in data set [14].

Broadly, the IC50 is the concentration at which inhibition is half-maximal.
